Source: patent US9790228B2, “Heterocyclic kinase inhibitors” (Intellikine LLC, priority 2008, dated 2017)

Columns and labels:
[1] = control compound, 5 μM; cited from earlier work
[2] = PBS pH 7.4, 24 hours, 37° C.; cited from earlier work
lupus disease model mice = settings: B6.Slelz.Sle3z model; cited from earlier work
PI3K/Akt/mTor signaling = test: Kinase signaling in blood (phosflow); format: cell-based; settings: anti-CD3 stimulated splenocytes or PBMC
Method: PI3K/Akt/mTor signaling is measured in blood cells using the phosflow method (Methods Enzymol. 2007; 434:131-54). The advantage of this method is that it is by nature a single cell assay so that cellular heterogeneity can be detected rather than population averages. This allows concurrent distinction of signaling states in different populations defined by other markers. Phosflow is also highly quantitative. To test the effects of one or more compounds disclosed herein, unfractionated splenocytes, or peripheral blood mononuclear cells are stimulated with anti-CD3 to initiate T-cell receptor signaling. The cells are then fixed and stained for surface markers and intracellular phosphoproteins.
Similarly, aliquots of whole blood are incubated for 15 minutes with vehicle (e.g. 0.1% DMSO) or kinase inhibitors at various concentrations, before addition of stimuli to crosslink the T cell receptor (TCR) (anti-CD3 with secondary antibody) or the B cell receptor (BCR) using anti-kappa light chain antibody (Fab′2 fragments). After approximately 5 and 15 minutes, samples are fixed (e.g. with cold 4% paraformaldehyde) and used for phosflow. […] The level of phosphrylation of kinase substrates such as Akt and S6 are then measured by incubating the fixed cells with labeled antibodies specific to the phosphorylated isoforms of these proteins. The population of cells are then analyzed by flow cytometry.

p110δ/p85α = p110δ/p85α (Homo sapiens (Human), UniProt O00329); test: PI3K δ inhibition assay (TLC lipid kinase or HTRF); format: biochemical
p110δ/p85α, sequence (O00329 whole entry): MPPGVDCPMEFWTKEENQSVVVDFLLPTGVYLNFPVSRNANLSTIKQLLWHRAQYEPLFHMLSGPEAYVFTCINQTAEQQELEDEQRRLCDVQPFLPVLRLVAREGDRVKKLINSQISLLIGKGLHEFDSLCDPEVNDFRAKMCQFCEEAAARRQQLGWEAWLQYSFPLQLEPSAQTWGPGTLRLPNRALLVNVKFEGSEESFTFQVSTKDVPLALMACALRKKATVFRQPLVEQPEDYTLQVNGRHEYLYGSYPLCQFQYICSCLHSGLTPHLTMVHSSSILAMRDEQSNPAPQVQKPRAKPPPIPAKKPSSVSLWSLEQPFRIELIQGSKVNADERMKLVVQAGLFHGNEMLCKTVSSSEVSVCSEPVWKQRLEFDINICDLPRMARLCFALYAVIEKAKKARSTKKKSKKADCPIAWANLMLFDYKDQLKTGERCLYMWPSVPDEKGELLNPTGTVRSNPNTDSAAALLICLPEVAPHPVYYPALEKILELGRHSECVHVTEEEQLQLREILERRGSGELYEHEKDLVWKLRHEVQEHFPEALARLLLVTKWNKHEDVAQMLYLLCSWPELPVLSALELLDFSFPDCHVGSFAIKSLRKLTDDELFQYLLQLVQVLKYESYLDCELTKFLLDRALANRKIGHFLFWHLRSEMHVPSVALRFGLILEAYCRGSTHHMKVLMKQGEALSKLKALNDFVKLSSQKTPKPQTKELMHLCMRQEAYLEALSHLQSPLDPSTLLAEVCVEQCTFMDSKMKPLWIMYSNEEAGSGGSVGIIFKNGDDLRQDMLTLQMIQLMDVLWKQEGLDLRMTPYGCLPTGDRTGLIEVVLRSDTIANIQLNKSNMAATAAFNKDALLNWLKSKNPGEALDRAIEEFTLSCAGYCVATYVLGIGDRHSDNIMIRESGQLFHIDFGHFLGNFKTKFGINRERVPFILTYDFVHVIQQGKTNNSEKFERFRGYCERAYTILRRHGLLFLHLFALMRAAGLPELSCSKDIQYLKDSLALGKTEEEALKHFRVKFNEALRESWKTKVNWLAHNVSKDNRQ
p110δ/p85α, sequence (P27986 whole entry partner): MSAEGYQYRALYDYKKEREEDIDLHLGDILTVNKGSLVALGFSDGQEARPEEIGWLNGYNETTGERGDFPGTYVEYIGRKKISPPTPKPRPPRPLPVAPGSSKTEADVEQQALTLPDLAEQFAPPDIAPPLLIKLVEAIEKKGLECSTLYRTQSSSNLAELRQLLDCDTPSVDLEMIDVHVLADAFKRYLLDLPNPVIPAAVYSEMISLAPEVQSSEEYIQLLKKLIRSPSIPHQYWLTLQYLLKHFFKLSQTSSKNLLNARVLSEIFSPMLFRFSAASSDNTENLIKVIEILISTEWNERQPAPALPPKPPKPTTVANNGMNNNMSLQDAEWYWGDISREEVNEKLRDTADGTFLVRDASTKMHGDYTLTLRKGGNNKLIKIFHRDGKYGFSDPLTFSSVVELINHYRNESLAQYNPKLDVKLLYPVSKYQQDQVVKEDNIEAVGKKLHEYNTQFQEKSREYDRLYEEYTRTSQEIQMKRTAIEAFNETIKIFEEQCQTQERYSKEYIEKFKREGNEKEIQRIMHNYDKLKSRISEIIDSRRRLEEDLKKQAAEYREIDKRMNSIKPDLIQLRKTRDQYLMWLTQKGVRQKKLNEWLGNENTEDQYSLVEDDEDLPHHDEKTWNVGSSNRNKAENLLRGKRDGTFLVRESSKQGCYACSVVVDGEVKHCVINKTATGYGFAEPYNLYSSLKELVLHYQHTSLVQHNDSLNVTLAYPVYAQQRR
In short: (§1)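 IC50 from TLC lipid kinase assay (25 mM HEPES pH 7.4, 10 mM MgCl2, 100 μg/ml phosphatidylinositol, 10 or 100 μM γ-32P-ATP, 5 min RT, phosphorimager) at 10–12 two-fold dilutions, or HTRF (10 μM PIP2, 10 μM ATP, 1 h RT) measuring PIP3 by TR-FRET; 2% DMSO final.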

p110γ = p110γ (Homo sapiens (Human), UniProt P48736); test: PI3K γ inhibition assay (TLC lipid kinase or HTRF); format: biochemical
p110γ, sequence (P48736 whole entry): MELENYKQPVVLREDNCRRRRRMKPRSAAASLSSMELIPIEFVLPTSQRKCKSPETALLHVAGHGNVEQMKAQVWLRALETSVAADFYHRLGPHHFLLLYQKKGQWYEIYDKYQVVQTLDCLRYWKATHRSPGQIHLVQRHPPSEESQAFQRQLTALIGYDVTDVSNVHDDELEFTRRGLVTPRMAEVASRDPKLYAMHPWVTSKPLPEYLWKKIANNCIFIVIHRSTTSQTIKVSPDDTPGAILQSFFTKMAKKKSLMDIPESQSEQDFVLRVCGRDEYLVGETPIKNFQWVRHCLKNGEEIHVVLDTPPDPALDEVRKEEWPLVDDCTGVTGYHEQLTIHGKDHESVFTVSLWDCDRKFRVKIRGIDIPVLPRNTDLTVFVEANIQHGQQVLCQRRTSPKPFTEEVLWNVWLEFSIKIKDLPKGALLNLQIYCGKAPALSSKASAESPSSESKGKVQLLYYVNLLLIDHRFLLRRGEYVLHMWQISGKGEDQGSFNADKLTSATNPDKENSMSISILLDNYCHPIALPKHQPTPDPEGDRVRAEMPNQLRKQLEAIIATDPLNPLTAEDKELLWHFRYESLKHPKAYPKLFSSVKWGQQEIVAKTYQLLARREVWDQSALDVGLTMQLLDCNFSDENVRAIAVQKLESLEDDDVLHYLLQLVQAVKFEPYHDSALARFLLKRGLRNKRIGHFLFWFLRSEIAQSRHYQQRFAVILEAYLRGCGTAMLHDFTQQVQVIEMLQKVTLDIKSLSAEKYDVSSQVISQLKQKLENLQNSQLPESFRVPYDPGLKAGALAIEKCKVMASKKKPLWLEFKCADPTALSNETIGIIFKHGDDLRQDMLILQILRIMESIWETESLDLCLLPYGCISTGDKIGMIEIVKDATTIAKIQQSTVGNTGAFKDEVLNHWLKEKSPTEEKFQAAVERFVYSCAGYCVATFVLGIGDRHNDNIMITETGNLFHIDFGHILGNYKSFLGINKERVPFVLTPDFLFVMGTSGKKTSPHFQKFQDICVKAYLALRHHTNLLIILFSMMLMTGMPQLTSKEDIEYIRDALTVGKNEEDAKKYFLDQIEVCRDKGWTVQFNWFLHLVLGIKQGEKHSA
In short: as §1

p110α/p85α = p110α/p85α (Homo sapiens (Human), UniProt P42336); test: PI3K α inhibition assay (TLC lipid kinase or HTRF); format: biochemical
p110α/p85α, sequence (P42336 whole entry): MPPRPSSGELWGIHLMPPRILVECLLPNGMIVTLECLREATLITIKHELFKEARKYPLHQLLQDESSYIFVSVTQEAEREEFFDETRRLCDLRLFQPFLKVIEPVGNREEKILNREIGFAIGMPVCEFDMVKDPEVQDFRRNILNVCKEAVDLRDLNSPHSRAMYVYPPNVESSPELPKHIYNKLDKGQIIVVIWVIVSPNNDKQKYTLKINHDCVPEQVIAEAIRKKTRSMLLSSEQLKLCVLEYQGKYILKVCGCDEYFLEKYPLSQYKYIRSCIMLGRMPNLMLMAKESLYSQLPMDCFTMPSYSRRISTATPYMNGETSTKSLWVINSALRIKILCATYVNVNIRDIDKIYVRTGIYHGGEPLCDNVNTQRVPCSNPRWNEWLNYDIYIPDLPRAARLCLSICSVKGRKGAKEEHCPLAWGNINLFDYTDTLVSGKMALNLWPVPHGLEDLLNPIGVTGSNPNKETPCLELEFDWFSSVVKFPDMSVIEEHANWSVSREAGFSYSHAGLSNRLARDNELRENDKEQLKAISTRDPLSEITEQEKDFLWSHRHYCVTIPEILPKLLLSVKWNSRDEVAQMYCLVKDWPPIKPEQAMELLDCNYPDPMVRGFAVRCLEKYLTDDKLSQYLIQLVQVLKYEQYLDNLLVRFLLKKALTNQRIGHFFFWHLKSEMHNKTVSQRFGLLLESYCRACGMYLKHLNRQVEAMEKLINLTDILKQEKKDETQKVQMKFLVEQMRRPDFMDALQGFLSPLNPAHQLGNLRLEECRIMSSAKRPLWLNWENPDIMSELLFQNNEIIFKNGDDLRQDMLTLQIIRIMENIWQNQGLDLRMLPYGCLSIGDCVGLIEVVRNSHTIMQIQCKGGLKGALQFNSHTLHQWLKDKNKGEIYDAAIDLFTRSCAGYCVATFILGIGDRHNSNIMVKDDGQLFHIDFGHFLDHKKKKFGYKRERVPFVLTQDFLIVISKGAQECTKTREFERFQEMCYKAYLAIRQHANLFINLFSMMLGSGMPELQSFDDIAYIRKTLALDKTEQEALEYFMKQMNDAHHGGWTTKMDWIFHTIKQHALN
p110α/p85α, sequence (P27986 whole entry partner): as the sequence (P27986 whole entry partner) above
In short: as §1

p110β/p85α = p110β/p85α (Homo sapiens, UniProt P42338); test: PI3K β inhibition assay (TLC lipid kinase or HTRF); format: biochemical; settings: read-out: PI3K β IC50
p110β/p85α, sequence (P42338 whole entry, looked up): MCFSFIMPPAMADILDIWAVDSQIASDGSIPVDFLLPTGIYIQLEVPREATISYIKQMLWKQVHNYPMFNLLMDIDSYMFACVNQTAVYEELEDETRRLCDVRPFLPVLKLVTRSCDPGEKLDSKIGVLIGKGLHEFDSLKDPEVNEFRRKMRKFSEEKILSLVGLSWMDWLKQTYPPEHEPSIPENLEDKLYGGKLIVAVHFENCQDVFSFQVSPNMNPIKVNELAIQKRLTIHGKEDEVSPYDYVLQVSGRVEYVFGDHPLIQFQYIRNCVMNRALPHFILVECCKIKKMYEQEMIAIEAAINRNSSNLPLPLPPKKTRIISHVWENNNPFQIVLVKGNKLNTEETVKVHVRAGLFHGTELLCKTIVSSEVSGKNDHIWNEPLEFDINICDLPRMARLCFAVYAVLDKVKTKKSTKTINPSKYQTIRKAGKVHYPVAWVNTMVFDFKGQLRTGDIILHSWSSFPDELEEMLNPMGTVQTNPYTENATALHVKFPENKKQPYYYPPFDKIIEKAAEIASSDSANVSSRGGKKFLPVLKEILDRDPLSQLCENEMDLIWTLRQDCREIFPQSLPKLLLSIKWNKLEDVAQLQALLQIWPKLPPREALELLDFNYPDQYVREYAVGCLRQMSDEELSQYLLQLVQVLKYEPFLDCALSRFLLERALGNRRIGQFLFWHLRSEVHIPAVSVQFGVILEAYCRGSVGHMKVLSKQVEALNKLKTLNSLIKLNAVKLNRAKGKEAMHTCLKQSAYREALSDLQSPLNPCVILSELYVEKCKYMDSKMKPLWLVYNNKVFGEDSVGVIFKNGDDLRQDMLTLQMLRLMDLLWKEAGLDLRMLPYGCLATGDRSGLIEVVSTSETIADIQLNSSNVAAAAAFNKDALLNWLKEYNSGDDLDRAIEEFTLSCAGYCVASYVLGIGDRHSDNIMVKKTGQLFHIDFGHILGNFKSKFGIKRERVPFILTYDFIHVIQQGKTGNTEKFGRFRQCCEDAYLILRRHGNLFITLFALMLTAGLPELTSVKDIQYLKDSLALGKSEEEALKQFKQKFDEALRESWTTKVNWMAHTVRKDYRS
In short: as §1

Balb/c splenic B cells = test: B cell activation and proliferation assay (Alamar Blue); format: cell-based, mouse; settings: Mus musculus, B-cell
In short: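 Purified Balb/c splenic B cells, 50,000/well, pretreated with compound 30 min (0.2% DMSO), then stimulated with 10 ug/ml LPS or 5 ug/ml anti-IgM F(ab′)2 plus 2 ng/ml IL4 (cocktail concentrations) for 72 h at 37 °C. Alamar Blue 5 h, fluorescence 560/590 nm; IC50/EC50 calculated.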

Row | Akt phosphorylation (PI3K/Akt/mTor signaling) | S6 phosphorylation (PI3K/Akt/mTor signaling) | IC50 (p110δ/p85α) [nM] | IC50 (p110γ) [nM] | IC50 (p110α/p85α) [nM] | IC50 (p110β/p85α) [nM] | SMILES | plasma stability [1] | chemical stability [2] | lupus symptoms (lupus disease model mice) | EC50 (Balb/c splenic B cells) [nM]
1 |  |  |  |  |  |  | CCCOc1cc(N)ccc1C(=O)OCCN(CC)CC [propoxycaine] | low |  |  | 
2 |  |  |  |  |  |  | O=C(O)CCCc1ccc(N(CCCl)CCCl)cc1 [chlorambucil] |  | largely hydrolyzed |  | 
3 |  |  |  |  |  |  | CO[C@H]1C[C@@H]2CC[C@@H](C)[C@@](O)(O2)C(=O)C(=O)N2CCCC[C@H]2C(=O)O[C@H]([C@H](C)C[C@@H]2CC[C@@H](OCCO)[C@H](OC)C2)CC(=O)[C@H](C)/C=C(\C)[C@@H](O)[C@@H](OC)C(=O)[C@H](C)C[C@H](C)/C=C/C=C/C=C/1C [RAD001] |  |  | ameliorate lupus symptoms | 
4 |  |  |  |  |  |  | CC(C)[N+](C)(CCOC(=O)C1c2ccccc2Oc2ccccc21)C(C)C [propantheline] | intermediate |  |  | 
5 | enhances Akt phosphorylation | inhibits S6 phosphorylation |  |  |  |  | CO[C@H]1C[C@@H]2CC[C@@H](C)[C@@](O)(O2)C(=O)C(=O)N2CCCC[C@H]2C(=O)O[C@H]([C@H](C)C[C@@H]2CC[C@@H](O)[C@H](OC)C2)CC(=O)[C@H](C)/C=C(\C)[C@@H](O)[C@@H](OC)C(=O)[C@H](C)C[C@H](C)/C=C/C=C/C=C/1C [rapamycin] |  |  |  | 
6 |  |  | < 100 | < 100 | < 100 | > 1000 | Nc1nc2ccc(-c3nn(Cc4cc5ccccc5nc4N4CCCC4)c4ncnc(N)c34)cc2s1 [Compound 79] |  |  |  | < 100
7 |  |  | 100 to 1000 | > 1000 | > 1000 | > 1000 | CC(=O)Nc1nc2ccc(-c3nn(Cc4cc5ccccc5nc4OC(C)C)c4ncnc(N)c34)cc2s1 [Compound 157] |  |  |  | > 1000
8 |  |  | < 100 | 100 to 1000 | > 1000 | > 1000 | Nc1ncnc2c1c(-c1cc(O)cc(F)c1)nn2Cc1cc2ccccc2nc1Cl [Compound 54] |  |  |  | < 100
9 |  |  | < 100 | > 1000 | > 1000 | > 1000 | Cc1cccc2cc(Cn3nc(I)c4c(N)ncnc43)c(N3CCCC3)nc12 [Compound 6] |  |  |  | 100 to 1000
10 |  |  | < 100 | < 100 | > 1000 | > 1000 | Cc1ccccc1-c1nc2ccccc2cc1Cn1nc(-c2ccc3cc(N)sc3c2)c2c(N)ncnc21 [Compound 86] |  |  |  | 100 to 1000
11 |  |  | < 100 | < 100 | 100 to 1000 | 100 to 1000 | Nc1ncnc2c1c(-c1cc(O)cc(F)c1)nn2Cc1cc2ccccc2nc1-c1ccccc1 [Compound 57] |  |  |  | < 100
12 |  |  | < 100 | < 100 | < 100 | 100 to 1000 | Nc1nc2ccc(-c3nn(Cc4cc5ccccc5nc4CCN4CCCC4)c4ncnc(N)c34)cc2s1 [Compound 167] |  |  |  | < 100
13 |  |  | < 100 | < 100 | > 1000 | > 1000 | CC(=O)Nc1nc2ccc(-c3nn(Cc4cc5ccccc5nc4-c4ccccc4C)c4ncnc(N)c34)cc2s1 [Compound 84] |  |  |  | < 100
14 |  |  | < 100 | 100 to 1000 | 100 to 1000 | < 100 | CC(=O)Nc1nc2ccc(-c3nn(Cc4cc5ccccc5nc4N4CCN(C)CC4)c4ncnc(N)c34)cc2s1 [Compound 70] |  |  |  | < 100
15 |  |  | < 100 | < 100 | > 1000 | > 1000 | CC(=O)Nc1nc2ccc(-c3nn(Cc4cc5ccccc5nc4-c4ccccc4)c4ncnc(N)c34)cc2s1 [Compound 92] |  |  |  | < 100
16 |  |  | < 100 | < 100 | < 100 | 100 to 1000 | Nc1nc2cc(-c3nn(Cc4cc5ccccc5nc4N4CCCC4)c4ncnc(N)c34)ccc2[nH]1 [Compound 153] |  |  |  | 100 to 1000

Row | Akt phosphorylation (PI3K/Akt/mTor signaling) | S6 phosphorylation (PI3K/Akt/mTor signaling) | IC50 (p110δ/p85α) [nM] | IC50 (p110γ) [nM] | IC50 (p110α/p85α) [nM] | IC50 (p110β/p85α) [nM] | SMILES | plasma stability [1] | chemical stability [2] | lupus symptoms (lupus disease model mice) | EC50 (Balb/c splenic B cells) [nM]
17 |  |  | < 100 | < 100 | > 1000 | > 1000 | Nc1nc2cc(-c3nn(Cc4cc5ccccc5nc4-c4ccccc4)c4ncnc(N)c34)ccc2o1 [Compound 145] |  |  |  | < 100
18 |  |  | > 1000 | > 1000 | > 1000 | > 1000 | Nc1ncc(-c2nn(Cc3cc4ccccc4nc3-c3ccccc3F)c3nccc(N)c23)cn1 [Compound 158] |  |  |  | > 1000
19 |  |  | < 100 | < 100 | > 1000 | > 1000 | Cc1ccncc1-c1nc2ccccc2cc1Cn1nc(-c2cc(O)cc(F)c2)c2c(N)ncnc21 [Compound 56] |  |  |  | < 100
20 |  |  | < 100 | 100 to 1000 | > 1000 | > 1000 | Nc1ncnc2c1c(-c1cc(O)cc(F)c1)nn2Cc1cc2ccccc2nc1-c1cccnc1 [Compound 55] |  |  |  | < 100
21 |  |  | < 100 | 100 to 1000 | > 1000 | > 1000 | CCC(c1cc2ccccc2nc1N1CCCC1)n1nc(-c2cc(O)cc(F)c2)c2c(N)ncnc21 (stereo not drawn) [Compound 40] |  |  |  | < 100
22 |  |  | < 100 | > 1000 | > 1000 | > 1000 | CC(c1cc2ccccc2nc1-c1ccccc1)n1nc(C#C[C@@H](C)O)c2c(N)ncnc21 (stereo partly drawn) [Compound 71] |  |  |  | 100 to 1000
23 |  |  | < 100 | 100 to 1000 | 100 to 1000 | 100 to 1000 | CC(=O)Nc1nc2ccc(-c3nn(Cc4cc5ccccc5nc4CCN4CCN(C)CC4)c4ncnc(N)c34)cc2s1 [Compound 169] |  |  |  | < 100
24 |  |  | < 100 | < 100 | 100 to 1000 | < 100 | CN1CCN(c2nc3ccccc3nc2Cn2nc(-c3ccc4nc(N)sc4c3)c3c(N)ncnc32)CC1 [Compound 199] |  |  |  | < 100
25 |  |  | < 100 | < 100 | < 100 | 100 to 1000 | Nc1nc2ccc(-c3nn(Cc4cc5ccccc5nc4N4CCOCC4)c4ncnc(N)c34)cc2s1 [Compound 129] |  |  |  | < 100
26 |  |  | < 100 | > 1000 | > 1000 | 100 to 1000 | CC(c1cc2ccccc2nc1N1CCN(C)CC1)n1nc(-c2cccc(O)c2)c2c(N)ncnc21 (stereo not drawn) [Compound 72] |  |  |  | < 100
27 |  |  | < 100 | < 100 | > 1000 | > 1000 | CC(C)N(C)c1nc2ccccc2cc1Cn1nc(-c2ccc3nc(N)[nH]c3c2)c2c(N)ncnc21 [Compound 184] |  |  |  | 100 to 1000
28 |  |  | < 100 | < 100 | < 100 | < 100 | CN1CCN(c2nc3ccccc3cc2Cn2nc(-c3ccc4cc(N)sc4c3)c3c(N)ccnc32)CC1 [Compound 80] |  |  |  | < 100
29 |  |  | < 100 | > 1000 | > 1000 | 100 to 1000 | CN1CCN(CCc2nc3ccccc3cc2Cn2nc(-c3cc(O)cc(F)c3)c3c(N)ncnc32)CC1 [Compound 168] |  |  |  | < 100
30 |  |  | < 100 | < 100 | < 100 | > 1000 | CC(=O)Nc1nc2ccc(-c3nn(Cc4cc5ccccc5nc4N4CCCC4)c4ncnc(N)c34)cc2s1 [Compound 195] |  |  |  | < 100
31 |  |  | < 100 | 100 to 1000 | 100 to 1000 | 100 to 1000 | CC(C)N(C)c1nc2ccccc2cc1Cn1nc(-c2cc(O)cc(F)c2)c2c(N)ncnc21 [Compound 52] |  |  |  | < 100
32 |  |  | < 100 | < 100 | < 100 | 100 to 1000 | Cc1ccccc1-c1nc2ccccc2cc1Cn1nc(-c2ccc3nc(N)ncc3c2)c2c(N)ncnc21 [Compound 132] |  |  |  | < 100
